In patent US8962631B2 (Vertex Pharmaceuticals Incorporated, priority 2010, dated 2015):

Target: T1, full-length ATR (Homo sapiens, UniProt Q13535)
T1 construct: Assays were carried out at 25° C. in the presence of 5 nM full-length ATR
Experiment: ATR Inhibition Assay (radioactive-phosphate incorporation)
Format: biochemical
Conditions: for Ki: Ki(app), 10 μM ATP, 800 μM target peptide, 5 nM full-length ATR, 25° C.; for inhibition at 15 µM: at 15 uM compound; for inhibition at 15 µM / inhibition at 30 µM: read-out: percent inhibition against ATR; for inhibition at 30 µM: at 30 uM compound
Description: Compounds were screened for their ability to inhibit ATR kinase using a radioactive-phosphate incorporation assay. Assays were carried out in a mixture of 50 mM Tris/HCl (pH 7.5), 10 mM MgCl2 and 1 mM DTT. Final substrate concentrations were 10 μM [γ-33P]ATP (3 mCi 33P ATP/mmol ATP, Perkin Elmer) and 800 μM target peptide ([…] (SEQ. ID NO: 1)).
Assays were carried out at 25° C. in the presence of 5 nM full-length ATR. An assay stock buffer solution was prepared containing all of the reagents listed above, with the exception of ATP and the test compound of interest. 13.5 μL of the stock solution was placed in a 96 well plate followed by addition of 2 μL of DMSO stock containing serial dilutions of the test compound (typically starting from a final concentration of 15 μM with 3-fold serial dilutions) in duplicate (final DMSO concentration 7%). The plate was pre-incubated for 10 minutes at 25° C. and the reaction initiated by addition of 15 μL [γ-33P]ATP (final concentration 10 μM).
The reaction was stopped after 24 hours by the addition of 30 μL 0.1M phosphoric acid containing 2 mM ATP. A multiscreen phosphocellulose filter 96-well plate (Millipore, Cat no. MAPHN0B50) was pretreated with 100 μL 0.2M phosphoric acid prior to the addition of 45 μL of the stopped assay mixture. The plate was washed with […] 0.2M phosphoric acid. After drying, 100 μL Optiphase ‘SuperMix’ liquid scintillation cocktail (Perkin Elmer) was added to the well prior to scintillation counting (1450 Microbeta Liquid Scintillation Counter, Wallac).
After removing mean background values for all of the data points, Ki(app) data were calculated from non-linear regression analysis of the initial rate data using the Prism software package (GraphPad Prism version 3.0cx for Macintosh, GraphPad Software, San Diego Calif., USA).

T1 sequence (Q13535 whole entry): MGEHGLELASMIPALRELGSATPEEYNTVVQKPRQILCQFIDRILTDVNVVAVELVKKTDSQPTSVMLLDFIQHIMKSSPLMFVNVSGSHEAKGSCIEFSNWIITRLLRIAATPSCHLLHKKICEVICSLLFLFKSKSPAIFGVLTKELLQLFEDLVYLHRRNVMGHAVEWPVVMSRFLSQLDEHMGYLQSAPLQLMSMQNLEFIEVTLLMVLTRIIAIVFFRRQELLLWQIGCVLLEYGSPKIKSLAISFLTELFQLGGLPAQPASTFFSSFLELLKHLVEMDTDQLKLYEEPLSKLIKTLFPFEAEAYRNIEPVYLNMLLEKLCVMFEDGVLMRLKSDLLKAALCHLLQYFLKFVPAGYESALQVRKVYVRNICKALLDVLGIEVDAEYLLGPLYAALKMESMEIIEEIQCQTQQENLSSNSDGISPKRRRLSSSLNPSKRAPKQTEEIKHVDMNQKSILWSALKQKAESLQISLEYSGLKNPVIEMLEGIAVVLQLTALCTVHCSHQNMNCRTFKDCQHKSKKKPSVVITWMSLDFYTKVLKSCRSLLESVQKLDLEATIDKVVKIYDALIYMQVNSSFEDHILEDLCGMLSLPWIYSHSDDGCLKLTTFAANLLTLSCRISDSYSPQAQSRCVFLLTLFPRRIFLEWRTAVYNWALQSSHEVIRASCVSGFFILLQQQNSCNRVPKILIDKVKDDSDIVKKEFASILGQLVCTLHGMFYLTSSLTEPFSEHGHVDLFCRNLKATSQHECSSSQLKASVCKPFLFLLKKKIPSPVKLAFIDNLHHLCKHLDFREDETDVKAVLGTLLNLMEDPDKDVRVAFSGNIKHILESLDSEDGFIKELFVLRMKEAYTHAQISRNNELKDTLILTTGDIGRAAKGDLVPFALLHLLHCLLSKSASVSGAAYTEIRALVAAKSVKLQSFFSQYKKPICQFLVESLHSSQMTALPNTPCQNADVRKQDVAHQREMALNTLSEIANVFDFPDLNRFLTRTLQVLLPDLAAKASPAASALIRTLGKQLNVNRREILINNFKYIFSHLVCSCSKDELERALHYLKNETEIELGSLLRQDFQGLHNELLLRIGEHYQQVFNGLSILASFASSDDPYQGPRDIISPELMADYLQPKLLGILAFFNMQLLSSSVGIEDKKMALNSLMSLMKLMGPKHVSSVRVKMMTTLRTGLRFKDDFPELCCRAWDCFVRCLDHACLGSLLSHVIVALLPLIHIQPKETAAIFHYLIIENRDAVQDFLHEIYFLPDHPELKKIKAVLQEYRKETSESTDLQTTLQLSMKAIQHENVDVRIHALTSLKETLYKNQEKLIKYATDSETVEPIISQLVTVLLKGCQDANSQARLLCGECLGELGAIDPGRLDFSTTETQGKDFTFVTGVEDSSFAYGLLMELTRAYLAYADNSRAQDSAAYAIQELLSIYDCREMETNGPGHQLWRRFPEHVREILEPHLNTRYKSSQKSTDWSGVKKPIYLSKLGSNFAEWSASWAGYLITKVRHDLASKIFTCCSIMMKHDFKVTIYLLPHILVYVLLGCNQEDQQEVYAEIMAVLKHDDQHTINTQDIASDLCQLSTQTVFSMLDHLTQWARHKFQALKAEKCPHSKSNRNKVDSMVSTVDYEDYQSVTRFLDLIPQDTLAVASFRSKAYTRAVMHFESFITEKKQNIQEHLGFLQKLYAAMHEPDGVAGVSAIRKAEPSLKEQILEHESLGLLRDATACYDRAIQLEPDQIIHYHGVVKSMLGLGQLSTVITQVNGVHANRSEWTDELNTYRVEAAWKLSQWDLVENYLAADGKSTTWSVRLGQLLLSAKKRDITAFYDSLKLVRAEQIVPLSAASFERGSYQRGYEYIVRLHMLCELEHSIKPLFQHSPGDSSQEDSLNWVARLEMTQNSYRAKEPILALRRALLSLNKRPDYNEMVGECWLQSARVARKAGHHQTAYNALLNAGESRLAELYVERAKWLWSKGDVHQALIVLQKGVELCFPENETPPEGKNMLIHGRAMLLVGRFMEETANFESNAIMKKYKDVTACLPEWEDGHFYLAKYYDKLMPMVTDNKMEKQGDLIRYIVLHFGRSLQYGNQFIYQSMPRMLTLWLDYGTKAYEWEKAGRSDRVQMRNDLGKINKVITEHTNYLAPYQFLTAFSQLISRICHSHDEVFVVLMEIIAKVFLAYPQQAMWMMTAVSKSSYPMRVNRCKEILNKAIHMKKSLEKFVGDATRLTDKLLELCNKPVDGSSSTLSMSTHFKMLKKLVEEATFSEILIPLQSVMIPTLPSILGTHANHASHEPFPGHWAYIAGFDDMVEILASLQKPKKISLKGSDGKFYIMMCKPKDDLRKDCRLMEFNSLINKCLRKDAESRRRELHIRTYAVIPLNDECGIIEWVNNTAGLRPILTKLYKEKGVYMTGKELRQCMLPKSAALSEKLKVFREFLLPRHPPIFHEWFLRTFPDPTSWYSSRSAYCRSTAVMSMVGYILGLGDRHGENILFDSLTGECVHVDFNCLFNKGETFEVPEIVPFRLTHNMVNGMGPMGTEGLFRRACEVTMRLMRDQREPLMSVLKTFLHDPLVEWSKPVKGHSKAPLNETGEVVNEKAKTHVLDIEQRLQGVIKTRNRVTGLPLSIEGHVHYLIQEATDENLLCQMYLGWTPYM

Row | SMILES | Ki [nM] | other results
1 | Cc1ccc2nc(-c3nc(/C=C/Cc4ccccc4)cnc3N)[nH]c2c1 | 1000 to 8000 | –
2 | Nc1ncc(O[C@@H]2CC[C@H](O)C2)nc1-c1nc2ccccc2[nH]1 (relative stereo) [II-35, cis-3-((5-Amino-6-(1H-benzo[d]imidazol-2-yl)pyrazin-2-yl)oxy)cyclopentanol] | 1000 to 8000 | –
3 | Nc1ncc(O[C@@H]2CC[C@@H](O)C2)nc1-c1nc2ccccc2[nH]1 (relative stereo) [II-36, trans-3-((5-Amino-6-(1H-benzo[d]imidazol-2-yl)pyrazin-2-yl)oxy)cyclopentanol] | 500 to 1000 | –
4 | Cc1ccc2nc(-c3nc(C(=O)NC(C)c4ccccc4)cnc3N)[nH]c2c1 (stereo in doubt) [II-57, 5-Amino-6-(6-methyl-1H-benzimidazol-2-yl)-N-[(1R)1-phenylethyl]pyrazine-2-carboxamide] | 1000 to 8000 | –
5 | Nc1ncc(Nc2ccccc2)nc1C(=O)Nc1ccccc1 [II-1, 3-Amino-6-anilino-N-phenyl-pyrazine-2-carboxamide] | ≤ 500 | –
6 | COc1ccccc1NC(=O)c1nc(Nc2ccccc2)cnc1N [II-3, 3-Amino-6-anilino-N-(2-methoxyphenyl)pyrazine-2-carboxamide] | ≤ 500 | –
7 | Nc1ncc(Nc2cccc(F)c2)nc1C(=O)Nc1ccccc1 [II-4, 3-Amino-6-(3-fluoroanilino)-N-phenyl-pyrazine-2-carboxamide] | ≤ 500 | –
8 | Nc1ncc(Nc2cccnc2)nc1C(=O)Nc1ccccc1 [II-5, 3-Amino-N-phenyl-6-(3-pyridylamino)pyrazine-2-carboxamide] | ≤ 500 | –
9 | Nc1ncc(Nc2ccncc2)nc1C(=O)Nc1ccccc1 [II-6, 3-Amino-N-phenyl-6-(4-pyridylamino)pyrazine-2-carboxamide] | ≤ 500 | –
10 | Nc1ncc(Oc2ccccc2)nc1-c1nc2ccccc2[nH]1 [II-7, 3-(1H-Benzimidazol-2-yl)-5-phenoxy-pyrazin-2-amine] | 500 to 1000 | –
11 | Nc1ncc(Oc2cccc(Cl)c2)nc1-c1nc2ccccc2[nH]1 [II-8, 3-(1H-Benzimidazol-2-yl)-5-(3-chlorophenoxy)pyrazin-2-amine] | 500 to 1000 | –
12 | CC(=O)Nc1cccc(Oc2cnc(N)c(-c3nc4ccccc4[nH]3)n2)c1 [II-9, N-[3-[5-Amino-6-(1H-benzimidazol-2-yl)pyrazin-2-yl]oxyphenyl]acetamide] | 1000 to 8000 | –
13 | N#Cc1cccc(Oc2cnc(N)c(-c3nc4ccccc4[nH]3)n2)c1 [II-10, 3-[5-Amino-6-(1H-benzimidazol-2-yl)pyrazin-2-yl]oxybenzonitrile] | ≤ 500 | –
14 | Cc1cccc(Oc2cnc(N)c(-c3nc4ccccc4[nH]3)n2)c1 [II-11, 3-(1H-Benzimidazol-2-yl)-5-(3-methylphenoxy)pyrazin-2-amine] | – | inhibition at 15 µM: 15 to 24%
15 | Nc1ncc(Oc2cccnc2)nc1-c1nc2ccccc2[nH]1 [II-12, 3-(1H-Benzimidazol-2-yl)-5-(3-pyridyloxy)pyrazin-2-amine] | 1000 to 8000 | –
16 | CC(C)Oc1cnc(N)c(-c2nc3ccccc3[nH]2)n1 [II-13, 3-(1H-Benzimidazol-2-yl)-5-isopropoxy-pyrazin-2-amine] | 1000 to 8000 | –
17 | Nc1ncc(OCCO)nc1-c1nc2ccccc2[nH]1 [II-14, 2-[5-Amino-6-(1H-benzimidazol-2-yl)pyrazin-2-yl]oxyethanol] | 1000 to 8000 | –
18 | COc1cccc(Oc2cnc(N)c(-c3nc4ccccc4[nH]3)n2)c1 [II-15, 3-(1H-Benzimidazol-2-yl)-5-(3-methoxyphenoxy)pyrazin-2-amine] | 500 to 1000 | –
19 | COc1ccccc1NC(=O)c1nc(Oc2ccccc2)cnc1N [II-16, 3-Amino-N-(2-methoxyphenyl)-6-phenoxy-pyrazine-2-carboxamide] | ≤ 500 | –
20 | Nc1ncc(Oc2ccccc2)nc1C(=O)Nc1ccccc1 [II-17, 3-Amino-6-phenoxy-N-phenyl-pyrazine-2-carboxamide] | 500 to 1000 | –
21 | CC(=O)Nc1ccc(Oc2cnc(N)c(-c3nc4ccc(C)cc4[nH]3)n2)cc1 [II-18, N-[4-[5-Amino-6-(6-methyl-1H-benzimidazol-2-yl)pyrazin-2-yl]oxyphenyl]acetamide] | 1000 to 8000 | –
22 | COc1ccc(Oc2cnc(N)c(-c3nc4ccc(C)cc4[nH]3)n2)cc1 [II-19, 5-(4-Methoxyphenoxy)-3-(6-methyl-1H-benzimidazol-2-yl)pyrazin-2-amine] | – | inhibition at 15 µM: 25 to 45%

Row | SMILES | Ki [nM] | other results
23 | Cc1ccc2nc(-c3nc(Oc4ccccc4C#N)cnc3N)[nH]c2c1 [II-20, 2-[5-Amino-6-(6-methyl-1H-benzimidazol-2-yl)pyrazin-2-yl]oxybenzonitrile] | 500 to 1000 | –
24 | Cc1ccc2nc(-c3nc(Oc4ccccc4Cl)cnc3N)[nH]c2c1 [II-21, 5-(2-Chlorophenoxy)-3-(6-methyl-1H-benzimidazol-2-yl)pyrazin-2-amine] | – | inhibition at 30 µM: 40 to 50%
25 | Cc1ccc2nc(-c3nc(Oc4c(F)cccc4F)cnc3N)[nH]c2c1 [II-22, 5-(2,6-Difluorophenoxy)-3-(6-methyl-1H-benzimidazol-2-yl)pyrazin-2-amine] | 1000 to 8000 | –
26 | Cc1ccc2nc(-c3nc(Oc4ccc(F)cc4)cnc3N)[nH]c2c1 [II-23, 5-(4-Fluorophenoxy)-3-(6-methyl-1H-benzimidazol-2-yl)pyrazin-2-amine] | 1000 to 8000 | –
27 | Cc1ccc2nc(-c3nc(Oc4ccc(O)cc4)cnc3N)[nH]c2c1 [II-24, 4-[5-Amino-6-(6-methyl-1H-benzimidazol-2-yl)pyrazin-2-yl]oxyphenol] | 1000 to 8000 | –
28 | COC(=O)c1ccc(Oc2cnc(N)c(-c3nc4ccc(C)cc4[nH]3)n2)cc1 [II-25, Methyl 4-[5-amino-6-(6-methyl-1H-benzimidazol-2-yl)pyrazin-2-yl]oxybenzoate] | – | inhibition at 15 µM: 10%
29 | Cc1ccc2nc(-c3nc(Oc4ccc(C(=O)O)cc4)cnc3N)[nH]c2c1 [II-26, 4-[5-Amino-6-(6-methyl-1H-benzimidazol-2-yl)pyrazin-2-yl]oxybenzoic acid] | ≤ 500 | –
30 | Cc1ccc2nc(-c3nc(OCCN4CCCCC4)cnc3N)[nH]c2c1 [II-27, 3-(6-Methyl-1H-benzimidazol-2-yl)-5-[2-(1-piperidyl)ethoxy]pyrazin-2-amine] | – | inhibition at 15 µM: 25 to 45%
31 | Cc1ccc2nc(-c3nc(Oc4cccc(Oc5ccccc5)c4)cnc3N)[nH]c2c1 [II-28, 3-(6-Methyl-1H-benzimidazol-2-yl)-5-(3-phenoxyphenoxy)pyrazin-2-amine] | – | inhibition at 60 µM (at 60 uM compound, read-out: percent inhibition of ATR): 10%
32 | Cc1ccc2nc(-c3nc(Oc4cccnc4)cnc3N)[nH]c2c1 [II-29, 3-(6-Methyl-1H-benzimidazol-2-yl)-5-(3-pyridyloxy)pyrazin-2-amine] | 500 to 1000 | –
33 | Cc1ccc2nc(-c3nc(Oc4ccccc4)cnc3N)[nH]c2c1 [II-30, 3-(6-Methyl-1H-benzimidazol-2-yl)-5-phenoxy-pyrazin-2-amine] | 1000 to 8000 | –
34 | Cc1ccc2nc(-c3nc(Oc4cccc(C#N)c4)cnc3N)[nH]c2c1 [II-31, 3-[5-Amino-6-(6-methyl-1H-benzimidazol-2-yl)pyrazin-2-yl]oxybenzonitrile] | – | inhibition at 15 µM: 15 to 24%
35 | Cc1ccc2nc(-c3nc(OC4CCOC4)cnc3N)[nH]c2c1 (stereo not shown) [II-32, 3-(6-Methyl-1H-benzimidazol-2-yl)-5-tetrahydrofuran-3-yloxy-pyrazin-2-amine] | 500 to 1000 | –
36 | Cc1ccc2nc(-c3nc(OC4CCCN(C)C4)cnc3N)[nH]c2c1 (stereo not shown) [II-33, 3-(6-Methyl-1H-benzimidazol-2-yl)-5-[(1-methyl-3-piperidyl)oxy]pyrazin-2-amine] | 1000 to 8000 | –
37 | CC(=O)NCCOc1cnc(N)c(-c2nc3ccc(C)cc3[nH]2)n1 [II-34, N-[2-[5-Amino-6-(6-methyl-1H-benzimidazol-2-yl)pyrazin-2-yl]oxyethyl]acetamide] | 1000 to 8000 | –
38 | Nc1ncc(Sc2ccccc2)nc1C(=O)Nc1ccccc1 [II-37, 3-Amino-N-phenyl-6-phenylsulfanyl-pyrazine-2-carboxamide] | 1000 to 8000 | –
39 | Nc1ncc(Sc2ccccc2)nc1-c1nc2ccccc2[nH]1 [II-38, 3-(1H-Benzimidazol-2-yl)-5-phenylsulfanyl-pyrazin-2-amine] | – | inhibition at 15 µM: 15 to 24%
40 | Nc1ncc(Sc2cccc(Cl)c2)nc1-c1nc2ccccc2[nH]1 [II-39, 3-(1H-Benzimidazol-2-yl)-5-(3-chlorophenyl)sulfanyl-pyrazin-2-amine] | 1000 to 8000 | –
41 | Nc1ncc(Sc2cccc(F)c2)nc1-c1nc2ccccc2[nH]1 [II-40, 3-(1H-Benzimidazol-2-yl)-5-(3-fluorophenyl)sulfanyl-pyrazin-2-amine] | – | inhibition at 30 µM: 40 to 50%
42 | Cc1ccc2nc(-c3nc(C(=O)Nc4ccccc4)cnc3N)[nH]c2c1 [II-41, 5-Amino-6-(6-methyl-1H-benzimidazol-2-yl)-N-phenyl-pyrazine-2-carboxamide] | – | inhibition at 15 µM: 25 to 45%
43 | Cc1ccc2nc(-c3nc(C(=O)Nc4cccnc4)cnc3N)[nH]c2c1 [II-42, 5-Amino-6-(6-methyl-1H-benzimidazol-2-yl)-N-(3-pyridyl)pyrazine-2-carboxamide] | 500 to 1000 | –
